Results reported in patent publication US20250257060A1, “OXADIAZOLE COMPOUND, PHARMACEUTICAL COMPOSITION COMPRISING SAME, AND USE THEREOF” (SUZHOU GENHOUSE BIO CO., LTD., priority 2022, published 2025).
Read-outs that look alike come from different tables or passages of the source.

Legend:
[1] = system: acetylation level of α-tubulin in HCT116 cells; experiment: Assay on acetylation level of α-tubulin, HCT116 cells; assay type: cell-based; settings: Homo sapiens, HCT-116, 6 h
Method: A375/HCT116/HCC827 cells at a logarithmic growth phase were taken, digested with a […] (trypsin), centrifuged, counted, and plated in a 96-well plate at an appropriate cell density (30,000 cells/well) at 100 µL/well, and an appropriate amount of PBS was added around the plate for water sealing. The next day, the cells were treated with the compounds at different concentrations (starting at 100 μM, 5-fold dilution, 9 concentration gradients). After 6 h, the medium was pipetted out and the cells were washed twice with 100 μL of PBST. The cells were then immobilized in 4% paraformaldehyde, and the plate was incubated at room temperature for 20 min. The stationary liquid was discarded and the cells were washed with PBST. 150 μL of special blocking buffer (containing 1% Triton-100) was added to each well for blocking at room temperature for 2 h, and the plate was washed with PBS to remove excess blocking buffer. α-tubulin (DM1A) mouse mAb and acetyl-α-tubulin (Lys40) (D20G3) XP rabbit mAb were diluted at a 1:2000 ratio with a blocking buffer containing 0.033% Triton-100. The dilutions were added to the 96-well plate and the plate was incubated overnight at 4° C. Meanwhile, a blank control group was set. The next day, the plate was washed twice with PBST. Secondary anti-mouse IgG (H+L) (DyLight™ 680 conjugate) and anti-rabbit IgG (H+L) (DyLight™ 800 conjugate) were diluted at a 1:2000 ratio with a blocking buffer containing 0.033% Triton-100. The dilutions were added to a 96-well plate and the plate was incubated at room temperature for 2 h. The plate was washed twice with PBST and once with PBS. Fluorescence signals at 700 nm and 800 nm were detected with a Li-COR Odyssey two-color near-infrared laser imager.

[2] = Pharmacokinetic test in mice (IV and PO); assay type: in vivo, BALB/c mice; settings: for Cmax / AUC(0-inf) / AUC(0-t) / MRT inf / Vd / Tmax: BALB/c, mouse, plasma; for MRT inf: read-out: MRT(0-∞); for Vd: read-out: Vz
Method: In this example, the pharmacokinetic behavior of the compounds after intravenous injection (IV) and intragastric (PO) administration in BALB/c mice was tested.
On the day of administration, mice were weighed for actual body weight and the administration volume was calculated. Each compound was tested in two groups with 3 mice in each group, one group administered by single intravenous injection and the other group of mice by single intragastric administration. Whole blood samples were collected via the orbit at prescribed time points (0.25 h, 0.5 h, 1 h, 2 h, 4 h, 8 h, and 24 h after administration). After blood sample collection, the samples were immediately transferred to labeled commercial sample tubes containing K2-EDTA (0.85-1.15 mg), followed by centrifugation (3200×g, 4° C., 10 min) and plasma collection. The plasma was transferred to a pre-cooled centrifuge tube, frozen in dry ice, and stored in an ultra-low temperature freezer at −60° C. or lower until the LC-MS/MS analysis.
Plasma concentrations were determined by a LC-MS/MS method. Plasma drug concentration data for compounds 1 and 2 were processed in a non-compartmental model using WinNonlin Version 6.3 (Pharsight, Mountain View, CA) pharmacokinetic software. The relevant pharmacokinetic parameters were calculated by a linear logarithmic trapezoid method.

[3] = Brain-to-blood drug concentration ratio of mice; assay type: in vivo; settings: mouse, 5 mg/kg PO
Method: On the day of administration, mice were weighed for actual body weight and the administration volume was calculated. In each group of 9 mice, the compound was administered by single intravenous (IV) injection or intragastric (PO) administration. Whole blood samples were collected via the orbit at prescribed time points. After blood sample collection, the samples were immediately transferred to labeled commercial sample tubes containing K2-EDTA (0.85-1.15 mg), followed by centrifugation (3200×g, 4° C., 10 min) and plasma collection. The plasma was transferred to a pre-cooled centrifuge tube, frozen in dry ice, and stored in an ultra-low temperature freezer at −60° C. or lower until the LC-MS/MS analysis. 20 μL of a plasma sample or brain tissue homogenate was taken and 80 μL of an internal standard solution (50 ng/mL solution of propafenone in acetonitrile) was added. The plate was sealed with a film sealer at 165° C., shaken on a micro oscillator (maximum vibration speed) for 10 min, and centrifuged at 4000 rpm for 20 min using a low-speed benchtop centrifuge, 10 μL of supernatant was transferred and 90 μL of acetonitrile was added. The mixture was vortexed and mixed well, and then the plate was sealed with the film sealer at 165° C. After the mixture was vortexed and mixed well, 1 μL of supernatant was taken for LC-MS/MS analysis. Plasma drug concentration data for the compounds were processed in a non-compartmental model using WinNonlin Version 6.3 (Pharsight, Mountain View, CA) pharmacokinetic software. The relevant pharmacokinetic parameters were calculated by a linear logarithmic trapezoid method.
Data processing: brain-to-blood drug concentration ratio of mice at the same time point=drug concentration in brain tissue/drug concentration in plasma

HDAC6 = HDAC6 (Homo sapiens (Human), UniProt Q9UBN7); experiment: HDAC6 enzymatic activity assay; assay type: biochemical
HDAC6, sequence (Q9UBN7 whole entry): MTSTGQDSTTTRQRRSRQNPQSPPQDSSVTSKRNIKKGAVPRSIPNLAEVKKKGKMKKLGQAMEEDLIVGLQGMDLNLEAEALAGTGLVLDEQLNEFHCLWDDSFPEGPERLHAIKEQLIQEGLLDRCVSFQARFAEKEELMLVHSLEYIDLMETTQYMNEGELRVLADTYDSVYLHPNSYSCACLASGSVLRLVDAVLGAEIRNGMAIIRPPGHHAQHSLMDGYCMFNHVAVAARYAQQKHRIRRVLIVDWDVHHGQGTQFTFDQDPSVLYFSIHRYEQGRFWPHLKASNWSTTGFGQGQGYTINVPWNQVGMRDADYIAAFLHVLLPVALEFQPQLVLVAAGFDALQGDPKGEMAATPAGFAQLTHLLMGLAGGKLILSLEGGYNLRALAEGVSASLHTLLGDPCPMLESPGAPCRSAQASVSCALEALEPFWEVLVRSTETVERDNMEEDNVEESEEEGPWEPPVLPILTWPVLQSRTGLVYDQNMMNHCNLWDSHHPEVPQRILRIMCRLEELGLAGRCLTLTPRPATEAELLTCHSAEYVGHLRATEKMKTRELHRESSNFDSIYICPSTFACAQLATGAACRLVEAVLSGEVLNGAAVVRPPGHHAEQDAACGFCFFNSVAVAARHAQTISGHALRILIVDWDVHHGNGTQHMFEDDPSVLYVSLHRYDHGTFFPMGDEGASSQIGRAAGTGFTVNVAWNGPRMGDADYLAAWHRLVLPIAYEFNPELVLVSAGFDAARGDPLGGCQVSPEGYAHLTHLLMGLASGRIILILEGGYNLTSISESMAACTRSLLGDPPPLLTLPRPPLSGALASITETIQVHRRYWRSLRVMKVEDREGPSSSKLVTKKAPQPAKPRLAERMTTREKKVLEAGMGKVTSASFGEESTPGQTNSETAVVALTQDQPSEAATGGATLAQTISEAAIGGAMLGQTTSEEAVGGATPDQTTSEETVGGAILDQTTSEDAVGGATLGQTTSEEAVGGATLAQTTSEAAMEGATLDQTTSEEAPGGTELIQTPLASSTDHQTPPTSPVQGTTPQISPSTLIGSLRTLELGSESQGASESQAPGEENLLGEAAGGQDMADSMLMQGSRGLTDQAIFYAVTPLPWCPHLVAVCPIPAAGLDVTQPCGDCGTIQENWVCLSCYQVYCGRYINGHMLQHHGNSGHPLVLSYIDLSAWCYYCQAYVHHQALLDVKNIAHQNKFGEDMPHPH
Method: The inhibitory activity of the compounds of the present application against HDAC6 was evaluated by an enzymatic activity assay. HDAC6 (Abcam), test compounds, and a 20 µM substrate solution (Ac-GAK(Ac)-AMC) were each added to a 384-well plate, and the plate was incubated at 37° C. for 30 min. […] and […] were added, and the plate was incubated at room temperature for 15 min. […] IC50 was obtained by fitting using GraphPadPrism 7.0 software.

[4] = brain, read-out: Brain drug concentration
[5] = plasma, read-out: Blood drug concentration

Compound	EC50 [1] [nM]	Cmax ([2]; po, 5 mg/kg, read-out: C0/Cmax) [µM]	AUC(0-inf) ([2]; mice, IV 1 mg/kg) [µM·h]	AUC(0-t) ([2]; mice, IV 1 mg/kg) [µM·h]	Cmax ([2]; mice, IV 1 mg/kg (C0)) [µM]	MRT inf ([2]; mice, IV 1 mg/kg) [h]	Vd ([2]; mice, IV 1 mg/kg) [L/kg]	AUC(0-inf) ([2]; mice, PO 5 mg/kg) [µM·h]	AUC(0-t) ([2]; mice, PO 5 mg/kg) [µM·h]	Tmax ([2]; mice, PO 5 mg/kg) [min]	MRT inf ([2]; mice, PO 5 mg/kg) [h]	CLz ([2]; mice, IV 1 mg/kg) [L/h/kg]	t½z ([2]; mice, IV 1 mg/kg) [h]	F ([2]; mice, PO 5 mg/kg) [%]	t½z ([2]; mice, PO 5 mg/kg) [h]	concentration at 1 h [3, 4] [ng/mL]	concentration at 2 h [3, 4] [ng/mL]	Kp at 2 h ([3]; brain/plasma)	concentration at 2 h [3, 5] [ng/mL]	IC50 (HDAC6) [nM]	further results
O=C(N[C@@H]1CCOC[C@H]1N1Cc2ccc(-c3nnc(C(F)F)o3)cc2S1(=O)=O)C(F)F [Compound 14]	124	7.27	4.27	4.22	3.15	1.5	0.928	15.2	14.8	30	1.88	0.504	1.277	71.27	1.48	85.6	42.8	0.03	1380		Kp at 1 h ([3]; brain/plasma): 0.03; concentration at 1 h [3, 5]: 2450 ng/mL
O=S1(=O)c2cc(-c3nnc(C(F)F)o3)ccc2CN1[C@@H](c1ccccn1)[C@H](O)c1ccc(F)cn1 (single isomer, unassigned) [Compound 84j-A]	544																			42.7	
O=S1(=O)c2cc(-c3nnc(C(F)F)o3)ccc2CN1[C@@H](c1ccc(F)cn1)[C@H](O)c1ccc(F)cn1 (single isomer, unassigned) [Compound 88j-A-B]	618																			160	
O=C(N[C@@H]1CCCC[C@H]1N1Cc2ccc(-c3nnc(C(F)F)o3)cc2S1(=O)=O)C1CC1 [Compound 114]	351																			97.5	
CC(F)(F)C(=O)N[C@H]1[C@H](N2Cc3ccc(-c4nnc(C(F)F)o4)cc3S2(=O)=O)CCCC1(F)F [Compound 7]	245																			56.7	
CC(F)(F)C(=O)N[C@@H]1CCCC(F)(F)[C@H]1N1Cc2ccc(-c3nnc(C(F)F)o3)cc2S1(=O)=O [Compound 10]	262	4.77	3.68	3.48	1.72	2.5	1.5	21.5	19.9	30	3.3	0.5	1.9	117.1	2.1		338	0.17	2020	43.1	concentration at 8 h ([3]; brain, 8 h, read-out: Brain drug concentration): 80 ng/mL; Kp at 8 h ([3]; brain/plasma, 8 h): 0.29; concentration at 8 h ([3]; plasma, 8 h, read-out: Blood drug concentration): 277 ng/mL
O=C(N[C@@H]1COCC[C@H]1N1Cc2ccc(-c3nnc(C(F)F)o3)cc2S1(=O)=O)C(F)F [Compound 13]	133	7.13	4.53	4.42	3.05	1.85	1.05	22	21.4	30	2.63	0.48	1.52	97.0	1.52	218	174	0.09	1780		Kp at 1 h ([3]; brain/plasma): 0.07; concentration at 1 h [3, 5]: 2950 ng/mL
O=C(N[C@@H]1CCCC[C@H]1N1Cc2ccc(-c3nnc(C(F)F)o3)cc2S1(=O)=O)N1CCOCC1 [Compound 113]	239	5.13	1.71	1.7	3.47	0.542	1.03	8.71	8.64	15	1.47	1.175	0.605	101.8	1.149	44.8	16.2	0.02	930		Kp at 1 h ([3]; brain/plasma): 0.03; concentration at 1 h [3, 5]: 1400 ng/mL
